Source: US20230271959A1, “HETEROCYCLIC COMPOUND AS BCL-2 INHIBITOR” (Beijing Innocare Pharma Tech Co., Ltd., priority 2020, published 2023)

Experiments:
[1] = target: T1, human recombinant Bcl-XL protein (Homo sapiens, UniProt Q07817); test: Fluorescence polarization test for inhibition of BCL-XL binding to FITC-BIM; settings: 10 nM BCL-XL, 10 nM FITC-BIM, read-out: FP BCL-XL IC50
T1 construct: purchased Beijing Yiqiao Shenzhou Biotechnology Co., Ltd. 10455-H0SE
Experimental: Fluorescence polarization assay was used to evaluate the effect of the compounds of the present invention on the biological activity of BCL-XL.
The effects of the compounds on the biological activity of BCL-XL were evaluated by detecting the effects of the compounds on the binding activity of BCL-XL to BIM using an affinity assay method based on the principle of fluorescence polarization. The reaction buffer contains the following components: PBS (pH 7.4, 3 mM Na2HPO4, 155 mM NaCl, 1 mM KH2PO4), 1 mM DTT; human recombinant Bcl-XL protein (Item No. 10455-H0SE) (purchased from Beijing Yiqiao Shenzhou Biotechnology Co., Ltd.) was diluted to 10 nM with reaction buffer; FITC-labeled BIM polypeptide (purchased from Nanjing GenScript Biotechnology Co., Ltd) was diluted to 10 nM with reaction buffer.
The compounds were dissolved in 100% DMSO and diluted to 1 μM, followed by 4-fold serial dilutions in DMSO to a minimum concentration of 0.061 nM, each concentration point was further diluted 50-fold with reaction buffer.
3 μL of solution containing the compound and 12 μL of solution containing BCL-XL were added to the black 384-well assay plate, mixed well, and incubated at room temperature for 15 minutes. Subsequently, 15 μL of FITC-BIM solution was added, and the reaction mixture was incubated at room temperature for 30 minutes in the dark place, and then the fluorescence polarization was detected immediately on an Envision multi-plate reader (Perkin Elmer), with 480 nm as the excitation wavelength and 535 nm as the emission wavelength. In this experiment, the group without BCL-XL protein was used as a negative control (100% inhibition), and the group with BCL-XL protein but without the compound was added as a positive control (0% inhibition). The inhibition percentage of the compound to the affinity of BCL-XL can be calculated using the following equation: […]
(§1) The IC50 of the compound was calculated from 8 concentration points using XLfit (ID Business Solutions Ltd., UK) software by the following equation:
(§2) Y=Bottom+(Top−Bottom)/(1+10^((log IC50−X)*slope factor))
(§3) where Y is the inhibition percentage, X is the logarithm of the concentration of the compound to be tested, Bottom is the maximum inhibition percentage, Top is the minimum inhibition percentage, and slope factor is the slope coefficient of the curve.

[2] = test system: RS4;11 cells (acute lymphoblastic leukemia cells); test: RS4;11 cell proliferation, CellTilter-Glo luminescence cell viability assay; assay type: cell-based; settings: Homo sapiens, RS4-11; CTG readout after 48 hours
Experimental: The effects of the compounds of the present invention on the proliferation of RS4;11 cells were evaluated using a luminescence cell viability assay.
A CellTilter-Glo (CTG) Assay Kit is used to detect ATP, a key indicator of the metabolism of living cells, through a unique, highly sensitive and stable luciferase. The luminescent signal generated in the assay is proportional to the number of the viable cells in the medium, therefore the cell proliferation of RS4;11 can be determined.
CellTilter-Glo reagent (Promega, G7572) is composed of CellTilter-Glo lyophilized powder and CellTilter-Glo buffer, and the lyophilized powder can be dissolved in the buffer for use.
RS4;11 cells (ATCC, CRL-1873) were cultured in RPMI1640 complete medium (Thermofisher, 72400-047) containing 10% FBS (GBICO, 10099-141) and 100 units/ml penicillin-streptomycin solution (Thermofisher, 15140122)), when the cells covered 80-90% in the culture vessel, they were digested and dispersed with 0.25% trypsin (containing EDTA) (Thermofisher, 25200056) and then planted in a white 384-well plate (Thermofisher, 164610), and then the 384-well plate was incubated overnight in a 37° C., 5% CO2 incubator. Compounds were dissolved in 100% DMSO and diluted to […], followed by 4-fold serial dilutions with DMSO to a minimum concentration of 0.061 μM, and each concentration point was further diluted 50-fold with FBS-free RPMI1640 medium. If the IC50 of the compound is very low, the initial concentration of the compound can be reduced. After overnight, 3 μL of the compound diluted in the medium was added to each well, and the mixture was gently centrifuged to mix. The group without cells was used as a negative control (100% inhibition), and the group with 0.2% DMSO was used as a positive control (0% inhibition). The 384-well plate was placed in a 37° C., 5% CO2 incubator for further cultivation. After 48 hours, the plate was taken out and equilibrated to room temperature. 15 μl of CTG reagent was added to each well, the plate was shaken gently for 3 minutes to make sure that the cell lysis was carried out thoroughly, then the plate was kept for 10 minutes to stabilize the luminescence signal, then the luminescence signal was read by EnVision (Perkin Elmer).
The inhibition percentage of the compounds to RS4;11 cell proliferation can be calculated using the following equation:
Inhibition Percentage=100−100*(signal compound-signal negative control)/(signal positive control-signal negative control)
as §1
Y=Bottom+(Top−Bottom)/(1+10^((Log IC50−X)*slope factor))
wherein, Y is the inhibition percentage, Bottom is the bottom plateau of the curve (the bottom plateau value of the S-shaped curve), Top is the top plateau of the curve (the top plateau value of the S-shaped curve), and X is the logarithm of the concentration of the compound to be tested.

[3] = target: T2, human recombinant Bcl-2 protein (Homo sapiens, UniProt P10415); test: Fluorescence polarization test for inhibition of BCL-2 binding to FITC-BIM; settings: 5 nM BCL-2, 5 nM FITC-BIM, read-out: FP BCL-2 IC50
T2 construct: purchased Beijing Yigiao Shenzhou Biotechnology Co., Ltd. 10195-HOSE
T2 sequence (P10415 whole entry): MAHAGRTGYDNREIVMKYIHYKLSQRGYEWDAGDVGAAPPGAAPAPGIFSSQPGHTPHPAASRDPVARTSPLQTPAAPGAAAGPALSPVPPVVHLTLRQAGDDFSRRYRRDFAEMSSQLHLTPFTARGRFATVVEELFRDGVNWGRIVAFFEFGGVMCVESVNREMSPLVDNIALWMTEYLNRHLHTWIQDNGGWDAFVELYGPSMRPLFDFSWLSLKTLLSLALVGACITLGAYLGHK
Experimental: Fluorescence polarization assay was used to evaluate the effect of the compounds of the present invention on the biological activity of BCL-2.
The effects of the compounds on the biological activity of BCL-2 were evaluated by determining the effects of the compounds on the binding activity of BCL-2 to leukemia pro-apoptotic protein (BIM) using an affinity assay method based on the principle of fluorescence polarization. The reaction buffer comprises the following components: PBS (pH 7.4, 3 mM Na2HPO4, 155 mM NaCl, 1 mM KH2PO4), 1 mM DTT; human recombinant Bcl-2 protein (Item No. 10195-HOSE) (purchased from Beijing Yigiao Shenzhou Biotechnology Co., Ltd.) was diluted to 5 nM with the reaction buffer; FITC-labeled BIM polypeptide (purchased from Nanjing GenScript Biotechnology Co., Ltd.) was diluted to 5 nM with the reaction buffer.
The compounds were dissolved in 100% DMSO and diluted to 0.1, 1, 10 μM, followed by 4-fold serial dilutions with DMSO to a minimum concentration of 0.0061, 0.061, 0.61 nM, each concentration point was further diluted 50-fold with the reaction buffer.
3 μL of solution containing the compound and 12 μL of solution containing BCL-2 were added to the black 384-well assay plate, mixed well, and incubated at room temperature for 15 minutes. Subsequently, 15 μL of FITC-BIM solution was added, and the reaction mixture was incubated at room temperature for 30 minutes in dark place, and then the fluorescence polarization was detected immediately on an Envision multi-mode reader (Perkin Elmer), with 480 nm as the excitation wavelength and 535 nm as the emission wavelength. In this experiment, the group without BCL-2 protein was used as a negative control (100% inhibition), and the group with BCL-2 protein but without the compound was used as a positive control (0% inhibition). The inhibition percentage of the compound to the affinity of BCL-2 can be calculated using the following equation: […]
as §1, §2, §3

T1 sequence (Q07817 whole entry): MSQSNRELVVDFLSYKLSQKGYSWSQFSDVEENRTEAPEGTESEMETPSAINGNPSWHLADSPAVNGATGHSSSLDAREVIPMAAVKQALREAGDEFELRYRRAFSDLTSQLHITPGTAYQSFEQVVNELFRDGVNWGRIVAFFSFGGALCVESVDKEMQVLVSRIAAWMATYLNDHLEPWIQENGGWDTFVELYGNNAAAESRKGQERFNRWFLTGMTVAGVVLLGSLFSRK

Row | Compound | IC50 [1] [nM] | IC50 [2] [nM] | IC50 [3] [nM]
1 | C[C@H]1CCC(CN2CCN(c3ccc(C(=O)NS(=O)(=O)c4ccc(NCC5CCOCC5)c([N+](=O)[O-])c4)c(Oc4cnc5[nH]ccc5c4)c3)C[C@H]2C)=C(c2ccc(Cl)cc2)C1 [Example 15, 2-((1H-pyrrolo[2,3-b]pyridin-5-yl)oxy)-4-((R)-4-(((S)-4′-chloro-5-methyl-3,4,5,6-tetrahydro-[1,1′-biphenyl]-2-yl)methyl)-3-methylpiperazin-1-yl)-N-((3-nitro-4-(((tetrahydro-2H-pyran-4-yl)methyl)amino)phenyl)sulfonyl)benzamide] | > 1000 | 19 | 5.99
2 | C[C@H]1CCC(CN2CCN(c3ccc(C(=O)NS(=O)(=O)c4cc(F)c(NC[C@H]5COCCO5)c([N+](=O)[O-])c4)c(Oc4cnc5[nH]ccc5c4)c3)C[C@H]2C)=C(c2ccc(Cl)cc2)C1 [Example 17, N-((4-((((S)-1,4-dioxan-2-yl)methyl)amino)-3-fluoro-5-nitrophenyl)sulfonyl)-2-((1H-pyrrolo[2,3-b]pyridin-5-yl)oxy)-4-((R)-4-(((S)-4′-chloro-5-methyl-3,4,5,6-tetrahydro-[1,1′-biphenyl]-2-yl)methyl)-3-methylpiperazin-1-yl)benzamide] | 953 | 3.1 | 1.46
3 | C[C@@H]1CCC(CN2CCN(c3ccc(C(=O)NS(=O)(=O)c4ccc(NCC5CCOCC5)c([N+](=O)[O-])c4)c(Oc4cnc5[nH]ccc5c4)c3)C[C@H]2C)=C(c2ccc(Cl)cc2)C1 [Example 19, 2-((1H-pyrrolo[2,3-b]pyridin-5-yl)oxy)-4-((R)-4-(((R)-4′-chloro-5-methyl-3,4,5,6-tetrahydro-[1,1′-biphenyl]-2-yl)methyl)-3-methylpiperazin-1-yl)-N-((3-nitro-4-(((tetrahydro-2H-pyran-4-yl)methyl)amino)phenyl)sulfonyl)benzamide] | > 1000 | 4.25 | 2.13
4 | C[C@@H]1CCC(CN2CCN(c3ccc(C(=O)NS(=O)(=O)c4cc(F)c(NCC5CCOCC5)c([N+](=O)[O-])c4)c(Oc4cnc5[nH]ccc5c4)c3)C[C@H]2C)=C(c2ccc(Cl)cc2)C1 [Example 21, 2-((1H-pyrrolo[2,3-b]pyridin-5-yl)oxy)-4-((R)-4-(((R)-4′-chloro-5-methyl-3,4,5,6-tetrahydro-[1,1′-biphenyl]-2-yl)methyl)-3-methylpiperazin-1-yl)-N-((3-fluoro-5-nitro-4-(((tetrahydro-2H-pyran-4-yl)methyl)amino)phenyl)sulfonyl)benzamide] | > 1000 | 8.8 | 1.97
5 | C[C@@H]1CCC(CN2CCN(c3ccc(C(=O)NS(=O)(=O)c4ccc(NCC5CCOCC5)c([N+](=O)[O-])c4)c(Oc4cnc5[nH]ccc5c4)c3)[C@H](C)C2)=C(c2ccc(Cl)cc2)C1 [Example 23, 2-((1H-pyrrolo[2,3-b]pyridin-5-yl)oxy)-4-((R)-4-(((R)-4′-chloro-5-methyl-3,4,5,6-tetrahydro-[1,1′-biphenyl]-2-yl)methyl)-2-methylpiperazin-1-yl)-N-((3-nitro-4-(((tetrahydro-2H-pyran-4-yl)methyl)amino)phenyl)sulfonyl)benzamide] | > 1000 | 51 | 9.37

Further lines, results first:

Row | IC50 [1] [nM] | IC50 [2] [nM] | IC50 [3] [nM] | Compound
6 | > 1000 | 8.8 | 3.41 | C[C@H]1CCC(CN2CCN(c3ccc(C(=O)NS(=O)(=O)c4ccc(NC[C@H]5COCCO5)c([N+](=O)[O-])c4)c(Oc4cnc5[nH]ccc5c4)c3)C[C@H]2C)=C(c2ccc(Cl)cc2)C1 [Example 16, N-((4-((((S)-1,4-dioxan-2-yl)methyl)amino)-3-nitrophenyl)sulfonyl)-2-((1H-pyrrolo[2,3-b]pyridin-5-yl)oxy)-4-((R)-4-(((S)-4′-chloro-5-methyl-3,4,5,6-tetrahydro-[1,1′-biphenyl]-2-yl)methyl)-3-methylpiperazin-1-yl) benzamide]
7 | > 1000 | 8.8 | 2.57 | C[C@@H]1CCC(CN2CCN(c3ccc(C(=O)NS(=O)(=O)c4ccc(NC[C@H]5COCCO5)c([N+](=O)[O-])c4)c(Oc4cnc5[nH]ccc5c4)c3)C[C@H]2C)=C(c2ccc(Cl)cc2)C1 [Example 20, N-((4-((((S)-1,4-dioxan-2-yl)methyl)amino)-3-nitrophenyl)sulfonyl)-2-((1H-pyrrolo[2,3-b]pyridin-5-yl)oxy)-4-((R)-4-(((R)-4′-chloro-5-methyl-3,4,5,6-tetrahydro-[1,1′-biphenyl]-2-yl)methyl)-3-methylpiperazin-1-yl)benzamide]
8 | > 1000 | 4.1 | 1.49 | C[C@@H]1CCC(CN2CCN(c3ccc(C(=O)NS(=O)(=O)c4cc(F)c(NC[C@H]5COCCO5)c([N+](=O)[O-])c4)c(Oc4cnc5[nH]ccc5c4)c3)C[C@H]2C)=C(c2ccc(Cl)cc2)C1 [Example 22]
9 | > 1000 | 24 | 6.3 | C[C@@H]1CCC(CN2CCN(c3ccc(C(=O)NS(=O)(=O)c4ccc(NC[C@H]5COCCO5)c([N+](=O)[O-])c4)c(Oc4cnc5[nH]ccc5c4)c3)[C@H](C)C2)=C(c2ccc(Cl)cc2)C1 [Example 24]
